The test system of the test is Plasmodium falciparum. Nature of the test: GSK_TCMDC: Inhibition of Plasmodium falciparum 3D7 in whole erythrocytes, using parasite LDH activity as an index of growth. The format is functional, organism-based. The settings on record: Plasmodium falciparum, 3D7.
The molecule `O=C(Cn1c(CCc2cccc(F)c2F)nc(=O)c2ccccc21)N(Cc1ccc(-c2ccc(C(F)(F)F)cc2)cc1)C1CCN(C2CCSCC2)CC1` yielded an XC50 of 856 nM. In the case of `CC(C)(C)N1CCC(N(Cc2ccc(-c3ccc(C(F)(F)F)cc3)cc2)C(=O)Cn2c(CCc3cccc(F)c3F)cc(=O)c3ccccc32)CC1`, the XC50 turned out to be 789 nM. The result for `Cc1ccc2[nH]c(-c3cc(-c4ccc(CO)cc4)cnc3N)nc2c1` reads 861 nM. The value for `Cc1[nH]c(C)c(-c2ccc(Oc3ccc(O)cc3)cc2)c(=O)c1Cl` was 1040 nM; that for `CCCCCCCN1CCC(CCNc2ccnc3ccc(OC)cc23)CC1` was 955 nM. The result for `FC(F)(F)c1ccc2[nH]c(-c3ccc(-c4cccc(CN5CCN(CCN6CCOCC6)CC5)c4)cc3)nc2c1` reads 160 nM; that for `CCCNCc1ccc(-c2ccc(CN(CCOC)C(=O)[C@H]3CCCO3)cc2)nc1`, 745 nM; that for `O=C(/C=C/c1ccc(Cl)c(Cl)c1)NCCCCCN1CCC(NC(=O)Nc2cccc(F)c2)CC1`, 769 nM.

Regarding `Cc1cc(C)n(Cc2ccc(C(=O)NCC3CCCCC3)cc2)n1`, the XC50 is 957 nM.

The molecule `COc1ccc(C=NN=c2cc(C)[nH]c3c(C)cccc23)c2ccccc12` registered an XC50 of 224 nM. The result for `COc1c(C2CCN(CCCCNC(=O)c3ccc(-c4ccc(C#N)cc4)nc3)CC2)ccc2c1CCCC2` reads 530 nM. The value for `O=C(Nc1ccc(-c2ccccc2)cc1)Nc1cccc(Cn2cnc(N3CCCNCC3)cc2=O)c1` was 1080 nM; that for `C[C@@H]([C@@H](CCCc1ccc(Cl)cc1)C(=O)N[C@H](C(=O)Nc1cccnc1)C(C)(C)C)N(O)C=O` was 719 nM; that for `FC(F)(F)c1cc(CNCCCNc2nc3ccncc3[nH]2)ccc1Cl` was 1010 nM.

As to `Cc1ccc(NC(=O)NC2CCN(CCC(NC(=O)Cc3ccccc3)c3ccc(Cl)c(Cl)c3)CC2)cc1` (stereo unspecified), the XC50 came to 619 nM. The molecule `O=C(NCCc1cccc(Cl)c1Cl)c1cnc(N2CCN(c3ccncc3)CC2)c(Cl)c1` displayed an XC50 of 702 nM.

In turn, `CC1(CCc2ccccc2)N=C(N)N(Cc2ccccc2)C(=O)C1c1ccc(Cl)c(Cl)c1` (stereo unspecified) returned an XC50 of 805 nM. The result for `CN(C)c1ccc(CN2CCC(CNC(=O)c3cc(-c4cccc(C(F)(F)F)c4)cs3)C2)cc1` (stereo unspecified) reads 882 nM. Regarding `c1ccc2cc3c(NCCN4CCOCC4)ccnc3cc2c1`, the XC50 worked out at 168 nM. The result for `CC(O)C1CCCCN1C(=O)c1cccc(-c2ccc(-c3nc4cc(C(F)(F)F)ccc4[nH]3)cc2)c1` (stereo unspecified) reads 690 nM.

On to `CC1(C)N=C(N)N=C(N)N1c1cccc(C(F)(F)F)c1`, for which the XC50 came out at 8.62 nM.

The molecule `O=S(=O)(Nc1cccc(CCN2CCCCC2CCN2CCCC2)c1)c1ccc(-c2ccccc2)cc1` (stereo unspecified) returned an XC50 of 1090 nM. Regarding `CN1CCN(c2cc(NC(=O)c3ccc(-c4ccc(Cl)cc4)cc3)ccc2Cl)CC1`, the XC50 was found to be 613 nM. For the molecule `COc1ccc2c(c1CNCCCCCCNCc1c(OC)ccc3c1CCCC3)CCCC2`, the XC50 was 907 nM. The result for `N=c1n(CCN2CCCC2)c2ccccc2n1CC(O)c1ccc(Cl)c(Cl)c1` (stereo unspecified) reads 277 nM; that for `N#Cc1ccc(N/C(=N\c2ccc(-c3ccccc3)cc2)NCc2cccnc2)c(O)c1`, 813 nM. Consider `Cc1nc(Nc2ccc(F)cc2)nc(N2CCc3ccccc3C2C)c1CO` (stereo unspecified), for which the XC50 came to 741 nM. The value for `CNC(=O)c1cnc(Nc2ccc(N3CCN(C)CC3)cc2)nc1Nc1ccccc1OC` was 928 nM. For the molecule `COc1cccc2cc(C(=O)N[C@@H](CC(C)C)C(=O)N[C@H](/C=N/NC(=O)c3ccccc3)Cc3c[nH]cn3)oc12`, the XC50 came out at 130 nM.

Molecule `CC(C)CCN1CCCN(Cc2ccc(C(=O)NCc3ccc(Cl)cc3)cc2)CC1` registered an XC50 of 1010 nM. For the molecule `CCn1c2c(c(=N)c3ccccc31)CCC2`, the XC50 amounted to 505 nM.

For `O=C(Nc1ccc(-c2csc(-c3nc4ccccc4[nH]3)c2)cc1)Nc1ccc(F)c(F)c1F`, the XC50 stood at 330 nM.

Regarding `COc1ccc2[nH]cc(C3CCN(Cc4ccc(NC(=O)c5ccc(-c6ccccc6)cc5)cc4)CC3)c2c1`, the XC50 was found to be 765 nM. The result for `CC(C)c1ccc(CN2CCC(CNC(=O)c3cc(-c4cccc(F)c4)cs3)C2)cc1` (stereo unspecified) reads 1660 nM; that for `CC(C)CCNCC(O)Cn1c2ccc(Cl)cc2c2cc(Cl)ccc21` (stereo unspecified), 447 nM. The value for `Cc1[nH]c(C)c(-c2ccc(-c3ccc(OCC(F)(F)F)cc3)nc2)c(=O)c1Cl` was 389 nM; that for `CN(C)Cc1ccc(-c2cccc(Nc3nccc(NCC(O)c4ccccc4)n3)c2)cc1` (stereo unspecified) was 373 nM. In turn, `Cc1ccccc1CNc1noc(-c2c(F)cccc2Cl)n1` returned an XC50 of 722 nM. The value for `COc1ccccc1C1CCN(C2CCC(NC(=O)/C=C/c3ccc(C(F)(F)F)cc3F)CC2)CC1` (stereo unspecified) was 990 nM; that for `COc1ccc(Nc2nc(N)c3cc(OC)c(OC)cc3n2)cc1OC` was 732 nM; that for `CC[C@H](C)CNC(=O)c1cncc(-c2ccc(CNC3Cc4ccccc4C3)cc2)c1` was 829 nM. Consider `COc1ccc2ncc(F)c(CCN3C[C@H](CNCc4cc(C#N)c5c(c4)OCCO5)[C@H](O)C3)c2n1`, for which the XC50 amounted to 582 nM. The result for `Cc1nc(NCCc2c[nH]cn2)cc(NCc2ccccc2)n1` reads 833 nM. The result for `NC(=O)c1cccc(CNC(=O)NC[C@H]2CN(Cc3ccc(Cl)c(Cl)c3)CCO2)c1` reads 586 nM. The result for `COc1ccc2nccc(N3CCCN(CCNS(=O)(=O)c4ccc5c(c4)NC(=O)CS5)CC3)c2n1` reads 824 nM; that for `N=C(/N=C(/NCCCCCCN/C(=N\C(=N)Nc1ccc(Cl)cc1)N1CCOCC1)N1CCOCC1)Nc1ccc(Cl)cc1`, 713 nM; that for `CC(Cc1ccc(C(=O)OCCOC(=O)c2ccc(CC(C)NCC(O)c3cccc(C(F)(F)F)c3)cc2)cc1)NCC(O)c1cccc(C(F)(F)F)c1` (stereo unspecified), 820 nM.

Take `Cc1ccc(Nc2nc3cc(N(C)c4ccnc(Nc5cccc(CCS(C)(=O)=O)c5)n4)ccc3n2C)cc1`: the XC50 came to 339 nM. In turn, `CC(=O)N/N=C/[C@H](CCc1ccccc1)NC(=O)[C@H](CC(C)C)NC(=O)c1ccc(OCCN2CCOCC2)cc1` displayed an XC50 of 222 nM. `COc1ccc(NC(=O)C2c3ccccc3C(=O)N(C3CCCC3)C2c2cccs2)c(OC)c1` (stereo unspecified) yielded an XC50 of 1480 nM. The value for `C[C@@H](C(=O)N1CCOCC1)N1CC[C@H](NS(=O)(=O)c2ccc3ccnc(N)c3c2)C1=O` was 1500 nM; that for `OC(CNC12CC3CC(CC(C3)C1)C2)c1cccc(C(F)(F)F)c1` (stereo unspecified) was 301 nM; that for `COc1ccc2nc(-c3ccc(C(=O)NCCCN4CCN(c5cc(Cl)ccc5OC)CC4)cc3)[nH]c2c1` was 772 nM. `COc1cc2nc(N3CCN(C(=O)c4cccc(I)c4)CC3)nc(N)c2cc1OC` gave an XC50 of 1320 nM.

The molecule `Oc1ccc(CCNCCCCCCNCCc2ccc(Cl)cc2)c(Cl)c1O` had an XC50 of 775 nM.

Molecule `CN(C)CCN(C)Cc1ccc(-c2ccc3c(Nc4ccc(F)cc4Cl)ccnc3c2)o1` showed an XC50 of 118 nM. The value for `COc1ccc(CCCN2C(=O)C(c3ccccc3)(c3ccccc3)N=C2N)cc1` was 1050 nM; that for `Cc1c(F)cc(C(=O)NC2CC2)cc1-c1ccc2c(cnn2S(=O)(=O)c2cccs2)c1` was 862 nM.

In turn, `Cc1ccc(C(=O)Nc2cccc(-c3ccc(N4CCN(C)CC4)nn3)c2)cc1[N+](=O)[O-]` registered an XC50 of 334 nM. Regarding `CCCNC(=O)c1cncc(-c2ccc(CNC(CC)c3ccccc3)cc2)c1` (stereo unspecified), the XC50 came out at 876 nM. The value for `Cc1c(C)n(C2CCCC2)c2ncnc(OC3CCN(CC(=O)NCC4CC4)CC3)c12` was 891 nM.

(Values after ChEMBL document CHEMBL1157539, “Thousands of chemical starting points for antimalarial lead identification” (Nature, 2010).)
